# Results published in publication PMC9721424, “Novel N-methylsulfonyl-indole derivatives: biological activity and COX-2/5-LOX inhibitory effect with improved gastro protective profile and reduced cardio vascular risks” (Journal of Enzyme Inhibition and Medicinal Chemistry, 2022).
# Test system: not listed separately
# Experiment: DPPH free radical assay
# Type: biochemical
# Conditions: 540 nm, 30 min, relative to Trolox
# Description: Preparation of samples was occurred at the following concentrations: Samples 3a, 4a, 5b, 5d and 5e at final concentrations of 0.5 mg/ml in methanol: DMSO 9:1 v/v. Samples 4b and 4d at final concentrations 0.025 mg/ml in methanol: DMSO 9:1 v/v, sample 5a at final concentrations 0.25 mg/ml in methanol: DMSO 9:1 v/v, Sample 4c, 5c and 4e at final concentrations 0.05 mg/ml in methanol: DMSO 9:1 v/v, sample 3b at final concentration 0.75 mg/ml methanol: DMSO 9:1 v/v. A stock solution of 100 µM concentration of Trolox, a standard used in this experiment, was prepared in methanol from which seven concentrations were prepared, including 50, 40, 30, 20, 15, 10 and 5 µM.
# The DPPH (2,2-diphenyl-1-picryl-hydrazyl-hydrate) free radical assay was carried out according to the method of Boly et al. 2016[39]. Briefly, freshly prepared DPPH reagent (100 µl, 0.1% in methanol) was added to 100 µl of the sample on 96 well plates (n = 6). The reaction was incubated at room temp for 30 min in the dark. After completion of the incubation time, the reduction in DPPH colour intensity was measured at 540 nm. Data obtained was represented as means ± SD, according to the following equation, percentage inhibition = [(Average absorbance of blank – average absorbance of the test)/(Average absorbance of blank)] *100. The results were recorded using a microplate reader, FluoStar Omega.
# Microsoft Excel® was used to analyse the obtained results. The IC50 values were calculated using Graph pad Prism 6® by converting the concentrations to their logarithmic value and selecting the non-linear inhibitor regression equation (log (inhibitor) vs. normalised response – variable slope equation). The methods used and the final test report (R-SO7320) were obtained from Nawah Scientific.
row,SMILES,DPPH test results (µM trolox equivalent/ 1mg sample ± SD)
1,"CS(=O)(=O)n1cc(/C=N/NC(N)=O)c2ccccc21 [Compound 3a, (E)-2{[1-(methylsulfonyl)-1H-indol-3yl]methylene}hydrazinecarboxamide]",5.91 ± 1.87 µM trolox equivalent/ 1mg sample

# Biological target: T1, COX-2 (Ovis aries, UniProt P79208)
# T1 sequence (P79208 17-603): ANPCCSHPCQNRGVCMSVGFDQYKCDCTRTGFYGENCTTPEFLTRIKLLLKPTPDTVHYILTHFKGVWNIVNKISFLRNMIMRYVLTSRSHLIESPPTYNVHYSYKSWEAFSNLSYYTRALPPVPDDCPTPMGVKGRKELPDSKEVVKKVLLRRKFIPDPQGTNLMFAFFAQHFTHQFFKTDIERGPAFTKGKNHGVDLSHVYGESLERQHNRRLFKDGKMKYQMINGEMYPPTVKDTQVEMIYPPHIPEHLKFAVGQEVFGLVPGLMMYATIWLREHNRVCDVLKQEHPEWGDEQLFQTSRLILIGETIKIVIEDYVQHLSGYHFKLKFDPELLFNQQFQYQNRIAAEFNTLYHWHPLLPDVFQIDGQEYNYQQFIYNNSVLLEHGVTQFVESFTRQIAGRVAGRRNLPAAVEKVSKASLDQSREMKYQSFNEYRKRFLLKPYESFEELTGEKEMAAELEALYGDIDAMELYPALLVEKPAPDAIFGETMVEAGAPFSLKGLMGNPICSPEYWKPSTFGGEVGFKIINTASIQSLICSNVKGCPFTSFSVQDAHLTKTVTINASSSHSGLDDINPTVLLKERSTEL
# Experiment: COX-2 inhibition, enzyme immune assay (EIA) kit
# Type: biochemical, ovine
# Conditions: COX-2 selectivity index
row,SMILES,S.I (IC50 COX-1/IC50 COX-2)
1,"CS(=O)(=O)n1cc(/C=N/NC(N)=O)c2ccccc21 [Compound 3a, (E)-2{[1-(methylsulfonyl)-1H-indol-3yl]methylene}hydrazinecarboxamide]",0.78

# Same assay, conditions: lab report, COX1/COX2
row,SMILES,SI
1,"CS(=O)(=O)n1cc(/C=N/NC(N)=O)c2ccccc21 [Compound 3a, (E)-2{[1-(methylsulfonyl)-1H-indol-3yl]methylene}hydrazinecarboxamide]",0.779

# Biological target: T2, 5-LOX enzyme (Homo sapiens, UniProt P09917)
# T2 construct: purchased Cayman Chemical K980-100
# T2 sequence (P09917 1-674): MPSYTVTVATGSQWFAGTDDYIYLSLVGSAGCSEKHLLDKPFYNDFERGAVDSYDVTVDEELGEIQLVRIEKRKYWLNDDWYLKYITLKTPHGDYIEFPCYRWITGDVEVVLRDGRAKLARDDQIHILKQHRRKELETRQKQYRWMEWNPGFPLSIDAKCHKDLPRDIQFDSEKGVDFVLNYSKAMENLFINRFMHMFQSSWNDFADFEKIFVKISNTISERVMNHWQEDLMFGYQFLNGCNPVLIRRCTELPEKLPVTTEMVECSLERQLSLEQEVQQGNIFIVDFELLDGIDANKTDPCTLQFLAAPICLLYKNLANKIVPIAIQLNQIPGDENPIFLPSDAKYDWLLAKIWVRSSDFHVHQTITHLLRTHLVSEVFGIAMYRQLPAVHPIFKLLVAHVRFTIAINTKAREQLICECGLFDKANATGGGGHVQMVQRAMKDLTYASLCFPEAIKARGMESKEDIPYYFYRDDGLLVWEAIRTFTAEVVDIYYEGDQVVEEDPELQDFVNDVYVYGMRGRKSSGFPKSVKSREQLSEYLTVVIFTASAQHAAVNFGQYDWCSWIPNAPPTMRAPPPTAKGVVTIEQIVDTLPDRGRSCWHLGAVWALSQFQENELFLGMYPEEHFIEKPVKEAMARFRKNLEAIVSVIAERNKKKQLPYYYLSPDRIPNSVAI
# Experiment: 5-LOX inhibition, Human Lipoxygenase Inhibitor Screening Assay (EIA) kit
# Type: biochemical
# Conditions: not given
# Description: The ability of the test compounds to inhibit the 5-LOX enzyme (IC50 value, μM) was detected using the Cayman Human Lipoxygenase Inhibitor Screening Assay (EIA) kit (catalog no. K980-100, Cayman Chemical). The IC50 values of test compounds were measured in µM according to the manufacturer’s instructions and reported method.
row,SMILES,IC50 [µM]
1,"CS(=O)(=O)n1cc(/C=N/NC(N)=O)c2ccccc21 [Compound 3a, (E)-2{[1-(methylsulfonyl)-1H-indol-3yl]methylene}hydrazinecarboxamide]",48.8 ± 2.58

# Same assay, conditions: conc 0.1 (μM)
row,SMILES,5-LOX %inh [%]
1,"CS(=O)(=O)n1cc(/C=N/NC(N)=O)c2ccccc21 [Compound 3a, (E)-2{[1-(methylsulfonyl)-1H-indol-3yl]methylene}hydrazinecarboxamide]",2.63

# Same assay, conditions: conc 1 (μM)
row,SMILES,5-LOX %inh [%]
1,"CS(=O)(=O)n1cc(/C=N/NC(N)=O)c2ccccc21 [Compound 3a, (E)-2{[1-(methylsulfonyl)-1H-indol-3yl]methylene}hydrazinecarboxamide]",5.83

# Same assay, conditions: conc 10 (μM)
row,SMILES,5-LOX %inh [%]
1,"CS(=O)(=O)n1cc(/C=N/NC(N)=O)c2ccccc21 [Compound 3a, (E)-2{[1-(methylsulfonyl)-1H-indol-3yl]methylene}hydrazinecarboxamide]",18.6

# Same assay, conditions: conc 100 (μM)
row,SMILES,5-LOX %inh [%]
1,"CS(=O)(=O)n1cc(/C=N/NC(N)=O)c2ccccc21 [Compound 3a, (E)-2{[1-(methylsulfonyl)-1H-indol-3yl]methylene}hydrazinecarboxamide]",70.3

# Test system: not given
# Experiment: not given
# Conditions: not given
row,SMILES,melting point [°C]
1,"CS(=O)(=O)n1cc(/C=N/NC(N)=O)c2ccccc21 [Compound 3a, (E)-2{[1-(methylsulfonyl)-1H-indol-3yl]methylene}hydrazinecarboxamide]",238 to 240

# Biological target: T3, ovine COX-1 (Ovis aries, UniProt P05979)
# T3 sequence (P05979 25-600): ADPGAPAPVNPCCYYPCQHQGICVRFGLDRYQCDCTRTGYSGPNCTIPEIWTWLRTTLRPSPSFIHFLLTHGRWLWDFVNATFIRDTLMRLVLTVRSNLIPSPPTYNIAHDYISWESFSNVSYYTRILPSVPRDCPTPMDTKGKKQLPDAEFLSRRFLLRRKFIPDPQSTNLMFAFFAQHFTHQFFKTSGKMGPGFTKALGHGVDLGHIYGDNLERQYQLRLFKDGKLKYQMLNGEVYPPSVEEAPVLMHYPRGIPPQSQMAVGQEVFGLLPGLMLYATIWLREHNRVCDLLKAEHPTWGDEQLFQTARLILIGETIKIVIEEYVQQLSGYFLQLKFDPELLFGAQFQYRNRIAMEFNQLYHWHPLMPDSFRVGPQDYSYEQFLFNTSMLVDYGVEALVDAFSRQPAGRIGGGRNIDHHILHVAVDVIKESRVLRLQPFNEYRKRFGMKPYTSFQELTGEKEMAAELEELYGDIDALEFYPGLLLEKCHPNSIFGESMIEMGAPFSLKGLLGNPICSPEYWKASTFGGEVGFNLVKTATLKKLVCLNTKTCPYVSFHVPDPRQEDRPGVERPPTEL
# Experiment: COX-1 inhibition, enzyme immune assay (EIA) kit
# Conditions: IC50 COX-1
# Description: Colorimetric enzyme immunoassay (EIA) kits were done to screen for the isozyme-specific inhibition.
row,SMILES,IC50 [µM]
1,"CS(=O)(=O)n1cc(/C=N/NC(N)=O)c2ccccc21 [Compound 3a, (E)-2{[1-(methylsulfonyl)-1H-indol-3yl]methylene}hydrazinecarboxamide]",21.1 ± 0.6

# Same assay, conditions: conc 0.1 (μM)
row,SMILES,COX1 %inh [%]
1,"CS(=O)(=O)n1cc(/C=N/NC(N)=O)c2ccccc21 [Compound 3a, (E)-2{[1-(methylsulfonyl)-1H-indol-3yl]methylene}hydrazinecarboxamide]",4.87

# Same assay, conditions: conc 1 (μM)
row,SMILES,COX1 %inh [%]
1,"CS(=O)(=O)n1cc(/C=N/NC(N)=O)c2ccccc21 [Compound 3a, (E)-2{[1-(methylsulfonyl)-1H-indol-3yl]methylene}hydrazinecarboxamide]",12.4

# Same assay, conditions: conc 10 (μM)
row,SMILES,COX1 %inh [%]
1,"CS(=O)(=O)n1cc(/C=N/NC(N)=O)c2ccccc21 [Compound 3a, (E)-2{[1-(methylsulfonyl)-1H-indol-3yl]methylene}hydrazinecarboxamide]",37.8

# Same assay, conditions: conc 100 (μM)
row,SMILES,COX1 %inh [%]
1,"CS(=O)(=O)n1cc(/C=N/NC(N)=O)c2ccccc21 [Compound 3a, (E)-2{[1-(methylsulfonyl)-1H-indol-3yl]methylene}hydrazinecarboxamide]",71
